Laboratory results published in paper PMC8793051 (ACS Omega, 2022).
pIC50: −log10 of the molar value.

What was measured:
UACC-257 = experiment: NCI-60 SRB growth assay; assay type: cell-based, human; conditions: for GI50 / CC50: Homo sapiens; for GI50 / TGI: UACC-257; for CC50: UACC-257, read-out: LC50
HOP-62 = experiment: NCI-60 SRB growth assay; assay type: cell-based, human; conditions: HOP-62; for GI50: Homo sapiens
HL-60(TB) = experiment: cells; conditions: Homo sapiens; for GI50: HL-60; for CC50: HL-60, read-out: LC50
SNB-75 = experiment: NCI-60 SRB growth assay; assay type: cell-based, human; conditions: for GI50 / CC50: Homo sapiens; for GI50 / TGI: SNB-75; for CC50: SNB-75, read-out: LC50
DU-145 = experiment: NCI-60 SRB growth assay; assay type: cell-based, human; conditions: for TGI / GI50: DU-145; for GI50 / CC50: Homo sapiens; for CC50: DU-145, read-out: LC50
SF-539 = experiment: NCI-60 SRB growth assay; assay type: cell-based, human; conditions: for GI50 / CC50: Homo sapiens; for GI50 / TGI: SF-539; for CC50: SF-539, read-out: LC50
NCI/ADR-RES = experiment: NCI-60 SRB growth assay; assay type: cell-based, human; conditions: for GI50 / CC50: Homo sapiens; for CC50: read-out: LC50
MDA-MB-231/ATCC = experiment: NCI-60 SRB growth assay; assay type: cell-based, human; conditions: for GI50 / CC50: Homo sapiens; for GI50 / TGI: MDA-MB-231; for CC50: MDA-MB-231, read-out: LC50
EKVX = experiment: NCI-60 SRB growth assay; assay type: cell-based, human
CCRF-CEM = experiment: NCI-60 SRB growth assay; assay type: cell-based, human; conditions: for GI50 / CC50: Homo sapiens; for CC50: read-out: LC50
OVCAR-4 = experiment: NCI-60 SRB growth assay; assay type: cell-based, human; conditions: for GI50 / CC50: Homo sapiens; for GI50 / TGI: OVCAR-4; for CC50: OVCAR-4, read-out: LC50
SF-268 = experiment: NCI-60 SRB growth assay; assay type: cell-based, human; conditions: for GI50 / CC50: Homo sapiens; for GI50 / TGI: SF-268; for CC50: SF-268, read-out: LC50
T-47D = experiment: NCI-60 SRB growth assay; assay type: cell-based, human; conditions: for TGI: T-47D
SW-620 = experiment: NCI-60 SRB growth assay; assay type: cell-based, human; conditions: for GI50 / CC50: Homo sapiens; for GI50: SW-620; for CC50: SW-620, read-out: LC50
HCC-2998 = experiment: NCI-60 SRB growth assay; assay type: cell-based, human; conditions: for TGI: HCC-2998; for GI50: HCC 2998
HEK = experiment: MTT cytotoxicity assay; assay type: cell-based; conditions: Homo sapiens, HEK293, 48 h
SK-MEL-2 = experiment: NCI-60 SRB growth assay; assay type: cell-based, human; conditions: for GI50 / TGI: SK-MEL-2
SK-MEL-5 = experiment: NCI-60 SRB growth assay; assay type: cell-based, human; conditions: for GI50 / CC50: Homo sapiens; for GI50 / TGI: SK-MEL-5; for CC50: SK-MEL-5, read-out: LC50
NCI-H226 = experiment: NCI-60 SRB growth assay; assay type: cell-based, human; conditions: for GI50: NCI-H226; for TGI: NCI–H226
[1] = system: oligo-1: d(CGCGAATTCGCG)2; experiment: Fluorescence titration; assay type: binding; conditions: 20 °C, pH 7.2
UO-31 = experiment: NCI-60 SRB growth assay; assay type: cell-based, human; conditions: for GI50 / CC50: Homo sapiens; for GI50 / TGI: UO-31; for CC50: UO-31, read-out: LC50
LOX IMVI = experiment: NCI-60 SRB growth assay; assay type: cell-based, human; conditions: for GI50: Homo sapiens
Hu Topo I = target: T1, Hu Topo I (Homo sapiens, UniProt P11387); experiment: Plasmid DNA relaxation assay
T1 sequence (P11387 1-765): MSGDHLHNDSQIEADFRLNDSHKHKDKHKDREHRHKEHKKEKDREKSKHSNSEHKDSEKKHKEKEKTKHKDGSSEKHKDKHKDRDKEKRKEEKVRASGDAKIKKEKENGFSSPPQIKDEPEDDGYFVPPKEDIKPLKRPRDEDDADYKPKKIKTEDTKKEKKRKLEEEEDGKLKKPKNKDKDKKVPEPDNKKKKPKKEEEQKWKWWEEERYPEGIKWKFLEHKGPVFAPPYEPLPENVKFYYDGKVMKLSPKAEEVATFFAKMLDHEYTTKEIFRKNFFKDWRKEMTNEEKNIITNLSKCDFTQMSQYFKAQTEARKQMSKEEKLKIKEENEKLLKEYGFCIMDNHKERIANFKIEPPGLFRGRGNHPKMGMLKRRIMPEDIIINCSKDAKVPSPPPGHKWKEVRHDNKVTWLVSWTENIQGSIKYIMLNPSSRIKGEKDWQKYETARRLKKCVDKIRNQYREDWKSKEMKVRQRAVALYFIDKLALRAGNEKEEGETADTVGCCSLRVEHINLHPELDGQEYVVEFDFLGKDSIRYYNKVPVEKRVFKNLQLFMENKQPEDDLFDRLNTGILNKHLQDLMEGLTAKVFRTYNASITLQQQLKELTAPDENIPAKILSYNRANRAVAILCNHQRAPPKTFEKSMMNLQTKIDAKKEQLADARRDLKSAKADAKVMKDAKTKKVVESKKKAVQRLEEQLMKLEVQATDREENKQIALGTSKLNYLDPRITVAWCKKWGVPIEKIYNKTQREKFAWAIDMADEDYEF

MCF7 = experiment: NCI-60 SRB growth assay; assay type: cell-based, human; conditions: for GI50: Homo sapiens
RPMI-8226 = experiment: NCI-60 SRB growth assay; assay type: cell-based, human; conditions: for GI50 / TGI: RPMI-8226
MALME-3M = experiment: NCI-60 SRB growth assay; assay type: cell-based, human; conditions: for GI50: Homo sapiens, Malme-3M; for TGI: MALME-3M

CCCCN1CCN(c2ccc3[nH]c(-c4ccc5[nH]c(-c6ccc(C(F)(F)F)cc6)nc5c4)nc3c2)CC1 [12b, 5-(5-(4-Butylpiperazin-1-yl)-1H-benzo[d]imidazol-2-yl)2(4(trifluoromethyl)phenyl)-1H-benzo[d]imidazole]
GI50 (UACC-257): 1700 nM
CC50 (UACC-257): 7200 nM
TGI (UACC-257): 3500 nM
TGI (HOP-62): 3050 nM
GI50 (HOP-62): 1300 nM
GI50 (HL-60(TB)): 1200 nM
CC50 (HL-60(TB)): 6600 nM
GI50 (SNB-75): 1050 nM
CC50 (SNB-75): 4800 nM
TGI (SNB-75): 2250 nM
TGI (DU-145): 1680 nM
GI50 (DU-145): 450 nM
CC50 (DU-145): 4300 nM
GI50 (SF-539): 1600 nM
CC50 (SF-539): 5800 nM
TGI (SF-539): 3050 nM
TGI (NCI/ADR-RES): 57700 nM
GI50 (NCI/ADR-RES): 2100 nM
CC50 (NCI/ADR-RES): > 100000 nM
GI50 (MDA-MB-231/ATCC): 1460 nM
CC50 (MDA-MB-231/ATCC): 5840 nM
TGI (MDA-MB-231/ATCC): 2920 nM
TGI (EKVX): 2900 nM
GI50 (EKVX; Homo sapiens): 1500 nM
CC50 (EKVX; Homo sapiens, read-out: LC50): 5700 nM
TGI (CCRF-CEM): 1030 nM
GI50 (CCRF-CEM): 300 nM
CC50 (CCRF-CEM): 5040 nM
GI50 (OVCAR-4): 600 nM
CC50 (OVCAR-4): 5200 nM
TGI (OVCAR-4): 1800 nM
GI50 (SF-268): 1700 nM
CC50 (SF-268): 6400 nM
TGI (SF-268): 3300 nM
GI50 (T-47D; Homo sapiens, T47D): 1240 nM
TGI (T-47D): 3230 nM
GI50 (SW-620): 210 nM
CC50 (SW-620): 450 nM
TGI (HCC-2998): 3500 nM
GI50 (HCC-2998; Homo sapiens): 1800 nM
CC50 (HCC-2998; Homo sapiens, HCC 2998, read-out: LC50): 6600 nM
pIC50 (HEK): 5.57
GI50 (SK-MEL-2; Homo sapiens): 1800 nM
CC50 (SK-MEL-2; Homo sapiens, SK-MEL-2, read-out: LC50): 6300 nM
TGI (SK-MEL-2): 3300 nM
GI50 (SK-MEL-5): 1600 nM
CC50 (SK-MEL-5): 6200 nM
TGI (SK-MEL-5): 3200 nM
GI50 (NCI-H226; Homo sapiens): 1570 nM
TGI (NCI-H226): 3590 nM
Ka binding affinity with oligo-1 [1]: 1 × 10^7 M^–1
GI50 (UO-31): 1770 nM
CC50 (UO-31): 5900 nM
TGI (UO-31): 3240 nM
TGI (LOX IMVI): 1100 nM
GI50 (LOX IMVI): 380 nM
pIC50 (Hu Topo I): 4.80
TGI (MCF7): 570 nM
GI50 (MCF7): 170 nM
GI50 (RPMI-8226; Homo sapiens): 250 nM
TGI (RPMI-8226): 620 nM
GI50 (MALME-3M): 1400 nM
TGI (MALME-3M): 3000 nM

CCCCN1CCN(c2ccc3[nH]c(-c4ccc5[nH]c(-c6ccc(OCC)c(OCC)c6)nc5c4)nc3c2)CC1 [12a, 5-(4-Butylpiperazin-1-yl)-2-(2-(3,4-diethoxyphenyl)-1H-benzo[d]imidazol-5-yl)-1H-benzo[d]imidazole]
GI50 (UACC-257): 1210 nM
CC50 (UACC-257): > 100000 nM
TGI (UACC-257): 10500 nM
TGI (HOP-62): 3400 nM
GI50 (HOP-62): 1810 nM
GI50 (HL-60(TB)): 700 nM
CC50 (HL-60(TB)): 67900 nM
GI50 (SNB-75): 650 nM
CC50 (SNB-75): 4540 nM
TGI (SNB-75): 2010 nM
TGI (DU-145): 2210 nM
GI50 (DU-145): 1000 nM
CC50 (DU-145): 4880 nM
GI50 (SF-539): 1260 nM
CC50 (SF-539): 5200 nM
TGI (SF-539): 2560 nM
TGI (NCI/ADR-RES): 100000 nM
GI50 (NCI/ADR-RES): 100000 nM
CC50 (NCI/ADR-RES): > 100000 nM
GI50 (MDA-MB-231/ATCC): 1690 nM
CC50 (MDA-MB-231/ATCC): 6380 nM
TGI (MDA-MB-231/ATCC): 3280 nM
TGI (EKVX): 3180 nM
GI50 (EKVX; Homo sapiens): 1380 nM
TGI (CCRF-CEM): 3060 nM
GI50 (CCRF-CEM): 530 nM
CC50 (CCRF-CEM): > 100000 nM
GI50 (OVCAR-4): 1480 nM
CC50 (OVCAR-4): 6950 nM
TGI (OVCAR-4): 3210 nM
GI50 (SF-268): 2660 nM
CC50 (SF-268): > 100000 nM
TGI (SF-268): 22000 nM
GI50 (T-47D; Homo sapiens, T47D): 1360 nM
CC50 (T-47D; Homo sapiens, T47D, read-out: LC50): > 100000 nM
TGI (T-47D): 7880 nM
GI50 (SW-620): 470 nM
CC50 (SW-620): 5150 nM
TGI (SW-620; SW620): 1790 nM
TGI (HCC-2998): 3220 nM
GI50 (HCC-2998; Homo sapiens): 1710 nM
pIC50 (HEK): 5.57
GI50 (SK-MEL-2; Homo sapiens): 1680 nM
TGI (SK-MEL-2): 3660 nM
GI50 (SK-MEL-5): 1090 nM
CC50 (SK-MEL-5): 9220 nM
TGI (SK-MEL-5): 3160 nM
GI50 (NCI-H226; Homo sapiens): 1290 nM
CC50 (NCI-H226; Homo sapiens, NCI-H226, read-out: LC50): > 100000 nM
TGI (NCI-H226): 3950 nM
Ka binding affinity with oligo-1 [1]: 1 × 10^7 M^–1
GI50 (UO-31): 2000 nM
CC50 (UO-31): 43800 nM
TGI (UO-31): 5800 nM
TGI (LOX IMVI): 1620 nM
GI50 (LOX IMVI): 420 nM
IC90 (Hu Topo I): 152000 nM
TGI (MCF7): 1420 nM
GI50 (MCF7): 190 nM
GI50 (RPMI-8226; Homo sapiens): 430 nM
CC50 (RPMI-8226; Homo sapiens, RPMI-8226, read-out: LC50): > 100000 nM
TGI (RPMI-8226): 2060 nM
GI50 (MALME-3M): 190 nM
TGI (MALME-3M): 1180 nM
